Values quoted from earlier work in patent publication EP1543827A1, “EMULSION OF PERFLUORORGANIC COMPOUNDS EXHIBITING GAS-TRANSPORT PROPERTIES, A SURFACE-ACTIVE AGENT FOR SAID EMULSION AND METHOD FOR THE PRODUCTION THEREOF” (Obshestvo C Ogranichennoi Otvetstvennostiu Accent, priority 2002, dated 2004).

Conditions: in vivo

Row | Compound | period of PFOC semi-clearance out of the organism
1 | FC(F)(F)C1(F)C(F)(F)C(F)(F)C(F)(N2C(F)(F)C(F)(F)C(F)(F)C(F)(F)C2(F)F)C(F)(F)C1(F)F (centres unmarked) [PMCP, perfluoro-n-methylcyclohexylpiperidine] | 65 days
2 | perfluordecalin [PFD] | 7 days
